Data as given in ChEMBL document CHEMBL3885881, “DrugMatrix”.

Species on record: Rattus norvegicus
Test: DrugMatrix - Regimen: Daily Repeat
Assay type: toxicity, organism-based, Sprague-Dawley
Parameters: regimen Daily Repeat, gender Male, age 6-8 weeks
Settings: in vivo, po, 76 mg/kg, route oral GAVAGE, dose level High, vehicle .5 % CMC; for ABSOLUTE BASOPHIL / ABSOLUTE EOSINOPHIL / ABSOLUTE LYMPHOCYTE / ABSOLUTE MONOCYTE / ABSOLUTE SEGMENTED NEUTROPHIL / BASOPHIL / EOSINOPHIL / ERYTHROCYTE COUNT / HEMATOCRIT / HEMOGLOBIN / LEUKOCYTE COUNT / LYMPHOCYTE / MEAN CORPUSCULAR HEMOGLOBIN / MEAN CORPUSCULAR HEMOGLOBIN CONCENTRATION / MEAN CORPUSCULAR VOLUME / MONOCYTE / NEUTROPHIL / NUCLEATED RED BLOOD CELLS / PLATELET COUNT: tissue Blood; for ALANINE AMINOTRANSFERASE / ALBUMIN / ALKALINE PHOSPHATASE / ASPARTATE AMINOTRANSFERASE / BLOOD UREA NITROGEN / CARBON DIOXIDE / CHLORIDE / CHOLESTEROL / CREATINE PHOSPHOKINASE / CREATININE / GLUCOSE / LACTATE DEHYDROGENASE / LIPASE / PHOSPHORUS / POTASSIUM / SODIUM / TOTAL BILIRUBIN / TOTAL PROTEIN / URIC ACID: tissue Plasma

## O=C1CN(/N=C/c2ccc([N+](=O)[O-])o2)C(=O)N1 [NITROFURANTOIN]
72 h, time 3 day
  ABSOLUTE BASOPHIL: 0 CELLS/uL
  ABSOLUTE EOSINOPHIL: 0 CELLS/uL
  ABSOLUTE LYMPHOCYTE: 13972.67 CELLS/uL
  ABSOLUTE MONOCYTE: 336.33 CELLS/uL
  ABSOLUTE SEGMENTED NEUTROPHIL: 1224.33 CELLS/uL
  BASOPHIL: 0%
  EOSINOPHIL: 0%
  ERYTHROCYTE COUNT: 5.83 x10E6/uL
  HEMATOCRIT: 38.1%
  HEMOGLOBIN: 13.73 G/DL
  LEUKOCYTE COUNT: 15.53 x10E3/uL
  LYMPHOCYTE: 89.33%
  MEAN CORPUSCULAR HEMOGLOBIN: 23.53 pg
  MEAN CORPUSCULAR HEMOGLOBIN CONCENTRATION: 36 G/DL
  MEAN CORPUSCULAR VOLUME: 65.37 fL
  MONOCYTE: 2.33%
  NEUTROPHIL: 8.33%
  NUCLEATED RED BLOOD CELLS: 0 /100WBC
  PLATELET COUNT: 1452.67 x10E3/uL
  ALANINE AMINOTRANSFERASE: 48.67 u/L
  ALBUMIN: 4.37 G/DL
  ALKALINE PHOSPHATASE: 355.67 u/L
  ASPARTATE AMINOTRANSFERASE: 77 u/L
  BLOOD UREA NITROGEN: 14.33 mg/dL
  CARBON DIOXIDE: 25 mmol/L
  CHLORIDE: 103.67 MEQ/L
  CHOLESTEROL: 77 mg/dL
  CREATINE PHOSPHOKINASE: 150 u/L
  CREATININE: 0.21 mg/dL
  GLUCOSE: 208.33 mg/dL
  LACTATE DEHYDROGENASE: 99 u/L
  LIPASE: 9.67 u/L
  PHOSPHORUS: 13.23 mg/dL
  POTASSIUM: 6.13 MEQ/L
  SODIUM: 146.97 MEQ/L
  TOTAL BILIRUBIN: 0.23 mg/dL
  TOTAL PROTEIN: 6.1 G/DL
  URIC ACID: 2.37 mg/dL
120 h, time 5 day
  ABSOLUTE BASOPHIL: 0 CELLS/uL
  ABSOLUTE EOSINOPHIL: 34.67 CELLS/uL
  ABSOLUTE LYMPHOCYTE: 10550 CELLS/uL
  ABSOLUTE MONOCYTE: 260.33 CELLS/uL
  ABSOLUTE SEGMENTED NEUTROPHIL: 1188.33 CELLS/uL
  BASOPHIL: 0%
  EOSINOPHIL: 0.33%
  ERYTHROCYTE COUNT: 5.54 x10E6/uL
  HEMATOCRIT: 34.03%
  HEMOGLOBIN: 12.9 G/DL
  LEUKOCYTE COUNT: 12.03 x10E3/uL
  LYMPHOCYTE: 88%
  MEAN CORPUSCULAR HEMOGLOBIN: 23.27 pg
  MEAN CORPUSCULAR HEMOGLOBIN CONCENTRATION: 37.9 G/DL
  MEAN CORPUSCULAR VOLUME: 61.4 fL
  MONOCYTE: 2%
  NEUTROPHIL: 9.67%
  NUCLEATED RED BLOOD CELLS: 0 /100WBC
  PLATELET COUNT: 1320 x10E3/uL
  ALANINE AMINOTRANSFERASE: 44.67 u/L
  ALBUMIN: 4.2 G/DL
  ALKALINE PHOSPHATASE: 279.67 u/L
  ASPARTATE AMINOTRANSFERASE: 85.67 u/L
  BLOOD UREA NITROGEN: 17 mg/dL
  CARBON DIOXIDE: 25.67 mmol/L
  CHLORIDE: 105 MEQ/L
  CHOLESTEROL: 70 mg/dL
  CREATINE PHOSPHOKINASE: 220 u/L
  CREATININE: 0.18 mg/dL
  GLUCOSE: 163.33 mg/dL
  LACTATE DEHYDROGENASE: 160.67 u/L
  LIPASE: 9.33 u/L
  PHOSPHORUS: 12.57 mg/dL
  POTASSIUM: 6.4 MEQ/L
  SODIUM: 146.63 MEQ/L
  TOTAL BILIRUBIN: 0.2 mg/dL
  TOTAL PROTEIN: 5.87 G/DL
  URIC ACID: 2.37 mg/dL
